Where a SMILES comes first, the peptide text is derived from it. Where no end group is shown, it is not given here. [ ]: non-standard residue; d: D form. Dopa = N[C@@H](Cc1ccc(O)c(O)c1)C(=O)O; Hyp = O=C(O)[CH]1C[CH](O)CN1; 3Hyp = 3-hydroxyproline
Assays:
[1] = test system: carrageenan-induced acute inflammation in subcutaneous air pouch; experiment: Air pouch model, histological scores of skin biopsies; assay type: in vivo, C57BL/6 mice; set-up: Fibroplastic proliferation score: scale not given here; settings: for Fibroplastic proliferation score / Inflammation score / Edema Score: 0.6 mg/mL, 300 μg/mouse injected into air pouch 1 hour before carrageenan; for Inflammation score: HE slices scored 1-3 points; for Edema Score: scored 1-3 points; for Sum: sum of scores, 300 μg/mouse into air pouch
Experimental: Healthy adult male C57BL/6 mice weighing between 20 and 30 g were supplied by Nanjing Biomedicial Research Institute of Nanjing University (NBRI). Prior to any experiments being conducted, mice were housed under standardized conditions (at a constant temperature of 22±2° C., with alternating 12 hour periods of light and darkness), and were fed on a standard mouse diet with water, for about a week.
General anesthesia was induced using intraperitoneal 3% chloral hydrate (Sinopharm Chemical Reagent Co., Ltd., Shanghai, China; 1 mL/10 g of body weight). The hair of the entire dorsum was shaved and depilated 1 day before sterile air injection.
Air pouches were produced by subcutaneous injection of sterile air (5 mL) into the intrascapular area of the mice. After three days, another injection of air (3 mL) was performed to maintain the pouches. In order to induce acute inflammation, three days after this final injection, animals received an injection of sterile carrageenan solution (CP Kelco, Taixing, Jiangsu Province, China. 1%, 0.5 mL; produced by adding 0.1 g of carrageenan powder into a beaker containing 10 mL of 0.9% saline solution and stirring). Mice were pre-treated with test samples or vehicle 1 hour before and 23 hours after the carrageenan injection into the subcutaneous air pouch. Animals were sacrificed 24 hours after the carrageenan injection.
Skin biopsies were taken from the air pouches. A part of the biopsy was fixed in formalin (produced by adding ultra pure water to 50 mL of a 40% formaldehyde solution (Nanchang Rain Dew Experimental Equipment Co., Ltd., Nanchang, Hubei Province, China) up to a total volume of 500 mL) and analyzed by histological embedding in paraffin wax, sectioning and staining.
After conducting some preliminary experiments to validate the model, an experiment was conducted in which mice were treated by administering test samples or vehicle in accordance with Table 1 below.
All the substances listed in Table 1 were administrated topically by directly injecting into the air pouches.
The histological specimens were analyzed and an inflammation score, an activity score (i.e. the number and density of neutrophils shown in pathological slides, indicating the degree of inflammation and, in the case of open wound and infective diseases, the degree of infection), an edema score and a fibroblast proliferation score were estimated as follows.
The HE stained slices were observed under an optical microscope and were scored (1, 2 or 3 points) according to the perceived inflammation level (in cases showing only a small amount of inflammatory cells scattered in the area-1 point (mild); in cases where many inflammatory cells were observed-2 points (moderate); and, in cases with diffuse infiltration-3 points (severe). A similar scoring system was employed for edema levels (3 points for most severe and 1 point for mild) after overall observation. Scores for neutrophils employed the same methodology as that employed for inflammatory cells.

[2] = Stability in phosphate buffer at different pHs (colour, HPLC peak area, purity); assay type: physicochemical; set-up: key to change of colour: NO means no colour changed was observed; + means a slight colour change is observed; ++ means a significant colour change is observed; settings: for stability (overall result): phosphate buffer pH 5.3, 7.2, 8.1, room temperature then 45° C., 6 days
Experimental: Stabilities of Compounds A and B (obtained as described in Examples 1 and 3 above) were tested as follows.
10 mg of the compounds were each dissolved in 1 mL of distilled water to make a stock solution with a concentration of 10 mg/mL. Then, 200 μL of the stock solutions were diluted with 20 mM phosphate buffer (PB; Sigma-Aldrich China) with different pHs as indicated in Table 8 below.
All of the samples above were filtered through a 0.22 μm membrane (SLGV033RS; Sigma-Aldrich China) to remove potential bacteria in the solution on a super-clean bench after being prepared.
All the samples above were stored at room temperature and, three days later, were transferred to a 45° C. oven after initial sample analysis by HPLC (Column: Angilent ZORBAX Eclipse XDB-C18 (4.6×250 mm; 5 μm) (SN: USNH008244); buffer: A: 0.1% TFA in Water; B: 0.1% TFA in ACN; gradient: 0-25 minutes: 5%-30% B; 25-30 min: 100% B; flow rate: 1 mL/min; detection wavelength: 220 nm; sample volume: 20 μL).
The stability of the above samples was studied by observing the change of colour (Table 9), HPLC peak areas (Table 10) and purity (Table 11). The pH values for all samples were measured as being stable during the testing period.

[3] = 20 mM phosphate buffer pH 5.3, Day 0
[4] = 20 mM phosphate buffer pH 7.2, Day 0
[5] = 20 mM phosphate buffer pH 8.1, Day 0
[6] = pH 5.3, Day 1, room temperature
[7] = pH 5.3, Day 3 (Transfer to 45° C.)
[8] = pH 7.2, Day 1, room temperature
[9] = pH 7.2, Day 3 (Transfer to 45° C.)
[10] = pH 8.1, Day 1, room temperature
[11] = pH 8.1, Day 3 (Transfer to 45° C.)

CC(N)C(=O)NC(CCCCN)C(=O)N1CCCC1C(=O)NC(CO)C(=O)NC(Cc1ccc(O)cc1)C(=O)N1CC(O)CC1C(=O)N1CC(O)CC1C(=O)NC(C(=O)NC(Cc1ccc(O)cc1)C(=O)NC(CCCCN)C(=O)O)C(C)O (stereo not drawn) [Compound B, Ala-Lys-Pro-Ser-Tyr-Hyp-Hyp-Thr-Tyr-Lys] (H-AKPSY[Hyp][Hyp]TYK-OH; configuration not given here)
Fibroplastic proliferation score [1]: 1.00
Inflammation score [1]: 1.6
Edema Score [1]: 1.2
Sum [1]: 2.8
HPLC peak area as area % of Day 0's result [2, 3]: 100%
change of colour [2, 3]: NO
purity (HPLC) in stability study [2, 3]: 99.2%
change of colour [2, 4]: NO
purity (HPLC) in stability study [2, 4]: 99.6%
HPLC peak area as area % of Day 0's result [2, 5]: 100%
change of colour [2, 5]: NO
purity (HPLC) in stability study [2, 5]: 99.5%
HPLC peak areas over time ([2]; at pH 7.2 and pH 8.1): decreased significantly
HPLC peak area as area % of Day 0's result [2, 6]: 100.0%
change of colour [2, 6]: NO
purity (HPLC) in stability study [2, 6]: 99.2%
HPLC peak area as area % of Day 0's result [2, 7]: 99.9%
change of colour [2, 7]: NO
purity (HPLC) in stability study [2, 7]: 98.4%
HPLC peak area as area % of Day 0's result ([2]; pH 5.3, Day 6 (45° C.)): 102.4%
change of colour ([2]; pH 5.3, Day 6 (45° C.)): NO
purity (HPLC) in stability study ([2]; pH 5.3, Day 6 (45° C.)): 99.0%
change of colour [2, 8]: NO
purity (HPLC) in stability study [2, 8]: 99.3%
HPLC peak area as area % of Day 0's result [2, 9]: 100%
change of colour [2, 9]: NO
purity (HPLC) in stability study [2, 9]: 98.7%
HPLC peak area as area % of Day 0's result ([2]; pH 7.2, Day 6 (45° C.)): 100.6%
change of colour ([2]; pH 7.2, Day 6 (45° C.)): NO
purity (HPLC) in stability study ([2]; pH 7.2, Day 6 (45° C.)): 98.2%
HPLC peak area as area % of Day 0's result [2, 10]: 98.9%
change of colour [2, 10]: NO
purity (HPLC) in stability study [2, 10]: 99.4%
HPLC peak area as area % of Day 0's result [2, 11]: 99.2%
change of colour [2, 11]: NO
purity (HPLC) in stability study [2, 11]: 98.4%
HPLC peak area as area % of Day 0's result ([2]; pH 8.1, Day 6 (45° C.)): 97.0%
change of colour ([2]; pH 8.1, Day 6 (45° C.)): NO
purity (HPLC) in stability study ([2]; pH 8.1, Day 6 (45° C.)): 96.4%
stability (overall result) [2]: stable at all pH values
HPLC peak areas over time ([2]; three samples, pH 5.3, 7.2, 8.1): almost unchanged

Ala-Lys-Pro-Ser-Tyr-Hyp-Hyp-Thr-DOPA-Lys (AKPSY[3Hyp][Hyp]T[Dopa]K; listed as Mytilus edulis) [Compound A]
Fibroplastic proliferation score [1]: 0.2
Inflammation score [1]: 1.6
Edema Score [1]: 1.8
Sum [1]: 3.4
HPLC peak area as area % of Day 0's result [2, 3]: 100%
change of colour [2, 3]: NO
purity (HPLC) in stability study [2, 3]: 99.4%
HPLC peak area as area % of Day 0's result [2, 4]: 100%
change of colour [2, 4]: NO
purity (HPLC) in stability study [2, 4]: 98.9%
HPLC peak area as area % of Day 0's result [2, 5]: 100%
change of colour [2, 5]: NO
purity (HPLC) in stability study [2, 5]: 96.3%
oxidation judged by HPLC purity ([2]; at pH 7.2 and pH 8.1): most of Compound A was oxidized
HPLC peak area as area % of Day 0's result [2, 6]: 100.1%
change of colour [2, 6]: NO
purity (HPLC) in stability study [2, 6]: 99.2%
HPLC peak area as area % of Day 0's result [2, 7]: 100.3%
change of colour [2, 7]: NO
purity (HPLC) in stability study [2, 7]: 99.4%
HPLC peak area as area % of Day 0's result ([2]; pH 5.3, Day 6 (45° C.)): 99.6%
change of colour ([2]; pH 5.3, Day 6 (45° C.)): NO
purity (HPLC) in stability study ([2]; pH 5.3, Day 6 (45° C.)): 98.0%
HPLC peak area as area % of Day 0's result [2, 8]: 89.0%
change of colour [2, 8]: +
purity (HPLC) in stability study [2, 8]: 92.1%
HPLC peak area as area % of Day 0's result [2, 9]: 41.7%
change of colour [2, 9]: +
purity (HPLC) in stability study [2, 9]: 94.8%
HPLC peak area as area % of Day 0's result ([2]; pH 7.2, Day 6 (45° C.)): 11.5%
change of colour ([2]; pH 7.2, Day 6 (45° C.)): ++
purity (HPLC) in stability study ([2]; pH 7.2, Day 6 (45° C.)): 13.8%
HPLC peak area as area % of Day 0's result [2, 10]: 64.8%
change of colour [2, 10]: ++
purity (HPLC) in stability study [2, 10]: 61.0%
HPLC peak area as area % of Day 0's result [2, 11]: 21.7%
change of colour [2, 11]: ++
purity (HPLC) in stability study [2, 11]: 52.5%
HPLC peak area as area % of Day 0's result ([2]; pH 8.1, Day 6 (45° C.)): 3.8%
change of colour ([2]; pH 8.1, Day 6 (45° C.)): ++
purity (HPLC) in stability study ([2]; pH 8.1, Day 6 (45° C.)): 3.9%
stability (overall result) [2]: stable only at pH 5.3

Source: patent US20250041377A1, “PHARMACEUTICAL USE” (ENLITISA (SHANGHAI) PHARMACEUTICAL CO., LTD., priority 2018, published 2025)
